Data on 17 compounds can be found in patent US11530197B2, “Analogs for the treatment of disease” (Insilico Medicine IP Limited, priority 2021, dated 2022).

What is called IC50 is the midpoint of a concentration-inhibition curve.

Data set [1] can be described thus: Metabolic stability in human liver microsomes.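 Note: NADPH-supplemented human liver microsomes sampled at 0, 5, 10, 20, 30 and 60 min, parent compound quantified by LC-MS/MS, intrinsic clearance from first-order decay, no-cofactor incubation as control.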 The class given is in vitro ADME. The conditions noted are these: LM Clint; 1 μM test compound, 0.5 mg protein/mL microsome, 37° C., up to 60 min. (Liver microsomes are a subcellular fraction often used to study metabolism.)
Procedure: Test Compound an Control Working Solution Preparation: Working solution: 5 μL of compound and control stock solution (10 mM in dimethyl sulfoxide (DMSO)) were diluted with 495 µL of acetonitrile (ACN) (intermediate solution concentration: 100 μM, 99% ACN).
Preparation Procedure: The appropriate amount of NADPH powder was weighed and diluted into a 10 mM MgCl2 solution (working solution concentration: 10 unit/mL; final concentration in reaction system: 1 unit/mL).
Preparation Procedure: The appropriate concentrations of microsome working solutions were prepared in 100 mM potassium phosphate buffer.
Stop Solution Preparation: Cold (4° C.) acetonitrile (ACN) containing 200 ng/mL tolbutamide and 200 ng/mL labetalol as internal standards (IS) was used as the stop solution.
Dilute liver microsomes to 0.56 mg/mL in 100 mM phosphate buffer.
Transfer 445 μL microsome working solutions (0.56 mg/mL) into pre-warmed ‘Incubation’ plates T60 and NCF60, Then pre-incubate ‘Incubation’ plates T60 and NCF60 for 10 min at 37° C. with constant shaking. Transfer 54 μL liver microsomes to blank plate, then add 6 μL NAPDH cofactor to blank plate, and then add 180 μL quenching solution to blank plate.
2.5.4 Add 5 μL compound working solution (100 μM) into ‘incubation’ plates (T60 and NCF60) containing microsomes and mix 3 times thoroughly.
For the NCF60 plate, add 50 μL of buffer and mix 3 times thoroughly. Start timing; plate will be incubated at 37° C. for 60 min while shaking.
For the T60 plate, mix 3 times thoroughly, and immediately remove 54 μL mixture for the 0-min time point to ‘Quenching’ plate. Then add 44 μL NAPDH cofactor to incubation plate (T60). Start timing; plate will be incubated at 37° C. for 60 min while shaking.
At 5, 10, 20, 30, and 60 min, add 180 μL quenching solution to ‘Quenching’ plates, mix once, and serially transfer 60 μL sample from T60 plate per time point to ‘Quenching’ plates.
For NCF60: mix once, and transfer 60 μL sample from the NCF60 incubation to ‘Quenching’ plate containing quenching solution at the 60-min time point.
All sampling plates are shaken for 10 min, then centrifuged at 4000 rpm for 20 minutes at 4° C.
Transfer 80 μL supernatant into 240 μL HPLC water, and mix by plate shaker for 10 min.
Each bioanalysis plate was sealed and shaken for 10 minutes prior to LC-MS/MS analysis.
The equation of first order kinetics was used to calculate T½ and Intrinsic clearance (CLint mic) in (L/min/mg).
For data set [2], the system named is Collagen I (COL1A1) in LX-2 cells. As to the kind of experiment: Collagen and Alpha-SMA in LX-2 (Western blot after TGF-β stimulation).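 Note: cells serum-starved in 0.4% FBS before treatment, lysates analysed by Western blot, DMSO-only wells as blank and TGF-β alone as maximal induction control, three independent experiments.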 The following applies: Homo sapiens, 4 ng/ml TGF-β for 48 hours, Collagen I normalized to GAPDH. The data set is classed as cell-based. A general note: A western blot detects proteins with antibodies after separation by electrophoresis.
Procedure: 3 ml of 0.25% Trypsin-EDTA solution was then added and cells were incubated at 37° C. for 5 min for each T150-flask. 7 ml of culture medium was added to stop trypsinization. The cells were centrifuged at 300×g for 5 min. Supernatant medium was discarded and cells were re-suspended with fresh culture medium. The cells were counted with Cell viability analyzer. 5.0E+05 cells/well were seeded into 6-well plate containing 2.0 mL of culture medium. The cells were cultured overnight at 37° C. The next day, the complete medium was replaced with medium with 0.4% FBS for starvation. […] In parallel, medium containing only DMSO and TGF-β was used as blank control and positive control, respectively. TGF-β induction was used as maximum induction positive control. The culture medium was discarded at the end of induction. Cells were washed once using ice-cold DPBS. RIPA buffer was added to lyse the cells for 20 min. The cells were then scraped off the culture plate, collected in a tube and centrifuged. The supernatant was stored at −80° C. The total amount of protein in the lysate was determined using BCA Protein Assay kit. The cell treatment of fibrosis assay was performed in three independent experiments for each compound.
All the lysate samples were adjusted to the same protein concentration with RIPA buffer after BCA assay. […] The denatured samples were used for electrophoresis. Western blot was performed according to the standard protocols. The same volume of protein was loaded onto 4-12% Bis-Tris gel. Duplicate lysates of samples were loaded onto two gels. The gels were run for 0.5 h at 80 V and 120 V for another 1 h. When the electrophoresis was completed, the gels containing target protein Collagen I (COL1A1) were transferred onto NC membrane using Trans-Blot Electrophoretic Transfer Cell for 90 min at 100 V. The iBlot™ 2 Gel Transfer Device was used to transfer α-SMA and GAPDH at 20 V for 7 min. All the membranes were blocked in TBST buffer with 5% nonfat dry milk in at RT for 1 h and then incubated with primary antibody anti-COL1A1 and anti-α-SMA in TBST buffer containing 5% BSA at 4° C. overnight. For GAPDH detection, the membrane with α-SMA immunoblots were stripped with Restore™ Western Blot Stripping Buffer after detection. And the membranes were re-blocked and then re-probed with primary antibody anti-GAPDH antibody at room temperature (RT) for 2 h. After incubation with primary antibodies, membranes were washed with TBST, then incubated with the secondary antibody at RT for 1 h. Blots were visualized using the instrument Image Quant LAS-4000. The chemiluminescent signals derived from ECL Western blotting reagents were captured. The bands integrated intensity from 16-bit blot images was used for quantitation with the software (1D component of ImageQuant TL). The quantification raw data of the two duplicated gels was obtained from ImageQuant TL. Collagen I and α-SMA proteins expression level was normalized to GAPDH for each gel. The average normalization data of the two duplicated gels was calculated and applied to calculate IC50 using an equation for a sigmoidal dose response (variable slope) of GraphPad™ Prism software. The equation is Y=Bottom+(Top-Bottom)/(1+10^((Log IC50−X)*Hillslope). Note: X is the logarithm of compound concentration, Y is the average normalization data

In another data set the target is TNIK(h) (Homo sapiens (Human), UniProt Q9UKE5). Kind of data set: TNIK Human STE Kinase Enzymatic Radiometric Assay.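 Note: remaining kinase activity relative to DMSO control, compound added without preincubation, reaction started with ATP, IC50 from variable-slope sigmoidal dose-response fit.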 The data set is classed as biochemical. The conditions noted are these: ATP 70 μM; 40 min at room temperature; read-out: TNIK (IC50).
In another data set the target is MAP4K4 (h) (Homo sapiens (Human), UniProt O95819). Kind of data set: MAP4K4 Human STE Kinase Enzymatic Radiometric Assay.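 Note: kinase activity remaining relative to the DMSO control, IC50 derived from sigmoidal variable-slope curve fits, no preincubation of compound with enzyme before ATP start.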 The following applies: ATP 200 μM; 40 min at room temperature. The data set is classed as biochemical.
MAP4K4 (h), sequence (O95819 whole entry): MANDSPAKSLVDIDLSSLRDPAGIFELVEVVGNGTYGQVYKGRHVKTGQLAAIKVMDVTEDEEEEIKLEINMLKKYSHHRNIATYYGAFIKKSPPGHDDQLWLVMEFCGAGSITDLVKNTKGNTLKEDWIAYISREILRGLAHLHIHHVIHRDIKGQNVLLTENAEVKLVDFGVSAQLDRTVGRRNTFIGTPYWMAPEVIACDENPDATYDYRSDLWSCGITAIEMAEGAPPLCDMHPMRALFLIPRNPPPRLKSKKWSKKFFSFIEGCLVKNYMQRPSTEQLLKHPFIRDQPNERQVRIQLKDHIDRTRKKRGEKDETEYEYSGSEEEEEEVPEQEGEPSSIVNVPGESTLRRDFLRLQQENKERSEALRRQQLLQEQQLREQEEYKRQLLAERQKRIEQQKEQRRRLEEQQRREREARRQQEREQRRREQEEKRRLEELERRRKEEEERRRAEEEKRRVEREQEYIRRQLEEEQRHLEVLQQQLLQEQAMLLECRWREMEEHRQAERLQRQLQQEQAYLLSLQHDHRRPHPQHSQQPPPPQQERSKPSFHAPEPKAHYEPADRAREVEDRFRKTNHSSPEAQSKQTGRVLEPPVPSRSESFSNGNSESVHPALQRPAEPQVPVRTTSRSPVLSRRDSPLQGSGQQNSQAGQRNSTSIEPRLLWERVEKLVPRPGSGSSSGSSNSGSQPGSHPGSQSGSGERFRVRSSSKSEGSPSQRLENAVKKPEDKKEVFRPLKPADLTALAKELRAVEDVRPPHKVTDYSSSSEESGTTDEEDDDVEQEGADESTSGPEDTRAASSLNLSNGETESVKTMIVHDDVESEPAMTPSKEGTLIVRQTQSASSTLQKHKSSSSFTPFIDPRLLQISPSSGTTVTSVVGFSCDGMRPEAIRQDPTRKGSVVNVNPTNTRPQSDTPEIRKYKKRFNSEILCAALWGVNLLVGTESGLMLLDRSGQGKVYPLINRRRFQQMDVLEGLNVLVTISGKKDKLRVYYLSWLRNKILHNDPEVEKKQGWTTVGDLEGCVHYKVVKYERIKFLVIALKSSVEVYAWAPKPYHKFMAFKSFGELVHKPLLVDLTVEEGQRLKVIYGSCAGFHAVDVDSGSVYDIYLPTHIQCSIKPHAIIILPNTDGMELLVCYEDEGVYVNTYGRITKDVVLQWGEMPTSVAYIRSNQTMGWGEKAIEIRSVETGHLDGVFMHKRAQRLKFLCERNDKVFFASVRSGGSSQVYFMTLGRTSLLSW

TNIK(h), sequence (Q9UKE5 whole entry): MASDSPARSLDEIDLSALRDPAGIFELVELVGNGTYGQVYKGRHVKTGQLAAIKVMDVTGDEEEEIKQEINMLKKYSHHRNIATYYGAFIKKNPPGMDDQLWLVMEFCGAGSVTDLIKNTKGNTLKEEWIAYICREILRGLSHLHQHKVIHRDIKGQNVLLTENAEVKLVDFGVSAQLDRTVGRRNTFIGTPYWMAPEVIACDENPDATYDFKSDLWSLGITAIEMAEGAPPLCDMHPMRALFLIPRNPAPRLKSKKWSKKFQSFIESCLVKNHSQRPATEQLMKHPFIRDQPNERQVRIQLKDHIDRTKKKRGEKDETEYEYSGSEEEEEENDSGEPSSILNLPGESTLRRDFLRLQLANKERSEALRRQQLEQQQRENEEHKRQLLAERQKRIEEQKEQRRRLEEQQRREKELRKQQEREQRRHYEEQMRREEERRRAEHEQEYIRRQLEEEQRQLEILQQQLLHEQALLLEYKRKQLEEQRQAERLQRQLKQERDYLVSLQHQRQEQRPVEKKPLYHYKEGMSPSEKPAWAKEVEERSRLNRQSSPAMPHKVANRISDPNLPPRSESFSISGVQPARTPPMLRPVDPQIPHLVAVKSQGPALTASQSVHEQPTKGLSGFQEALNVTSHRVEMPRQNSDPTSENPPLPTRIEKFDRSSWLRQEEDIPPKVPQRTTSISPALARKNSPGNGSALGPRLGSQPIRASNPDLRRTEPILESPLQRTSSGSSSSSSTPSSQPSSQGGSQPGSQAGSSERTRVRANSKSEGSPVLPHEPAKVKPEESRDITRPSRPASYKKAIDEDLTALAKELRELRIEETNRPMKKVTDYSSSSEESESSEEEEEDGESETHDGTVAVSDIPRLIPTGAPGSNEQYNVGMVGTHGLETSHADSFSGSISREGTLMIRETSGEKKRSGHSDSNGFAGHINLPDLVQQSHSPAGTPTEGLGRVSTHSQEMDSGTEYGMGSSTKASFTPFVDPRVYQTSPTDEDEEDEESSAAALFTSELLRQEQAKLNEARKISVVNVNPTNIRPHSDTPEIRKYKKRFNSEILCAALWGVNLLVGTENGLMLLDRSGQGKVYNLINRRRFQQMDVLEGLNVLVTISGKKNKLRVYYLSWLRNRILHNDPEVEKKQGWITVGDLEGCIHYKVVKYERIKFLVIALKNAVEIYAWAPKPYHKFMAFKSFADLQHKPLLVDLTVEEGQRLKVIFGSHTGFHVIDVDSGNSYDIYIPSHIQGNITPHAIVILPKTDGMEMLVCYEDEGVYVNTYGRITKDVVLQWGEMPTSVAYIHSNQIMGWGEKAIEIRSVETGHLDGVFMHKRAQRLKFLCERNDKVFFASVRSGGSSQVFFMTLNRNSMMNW
Procedure for MAP4K4 (h): (§1) The reaction is initiated by the addition of the Mg/ATP mix. After incubation for 40 minutes at room temperature, the reaction is stopped by the addition of phosphoric acid to a concentration of 0.5%.
INCUBATION: 40 min at Room temperature
COMPOUND DILUTION SCHEME: All compounds supplied were prepared to a working stock of 50× final assay concentration in 100% DMSO. Where appropriate, more concentrated stocks were diluted manually to 50× using 100% DMSO. Compounds supplied as powders were reconstituted to a 10 mM stock in 100% DMSO before further dilution to 50×.
ASSAY PROCEDURE: The required volume of the 50× stock of test compound was added to the assay before a reaction mix containing the enzyme and substrate was added. The reaction was initiated by the addition of ATP at the selected concentration. There was no pre-incubation of the compound with the enzyme/substrate mix prior to ATP addition.
Results are expressed as kinase activity remaining, as a percentage of the DMSO control. This is calculated using the following formula: Mean of Sample Counts−Mean of Blank Counts/Mean of Control Counts
(§2) For IC50 determinations, data are analyzed using XLFit version 5.3 (ID Business Solutions). Sigmoidal dose-response (variable slope) curves are fit based on the mean result for each test concentration using non-linear regression analysis. Where the top and/or bottom of the curve fall >10% out with 100 and 0, respectively, either or both of these limits may be constrained at 100 and 0, provided that the QC criterion on R2 is met.
Procedure for TNIK(h): as §1
INCUBATION: 40 min at Room temperature
COMPOUND DILUTION SCHEME: All compounds supplied were prepared to a working stock of 50× final assay concentration in 100% DMSO. Where appropriate, more concentrated stocks were diluted manually to 50× using 100% DMSO. Compounds supplied as powders were reconstituted to a 10 mM stock in 100% DMSO before further dilution to 50×. ASSAY PROCEDURE: The required volume of the 50× stock of test compound was added to the assay before a reaction mix containing the enzyme and substrate was added. The reaction was initiated by the addition of ATP at the selected concentration. There was no pre-incubation of the compound with the enzyme/substrate mix prior to ATP addition. […] Results are expressed as kinase activity remaining, as a percentage of the DMSO control. This is calculated using the following formula:
as §2

For the compound `CC(C)n1cnc(-c2ccc(F)cc2)c1-c1ccc(C(=O)Nc2ccc(N3CCN(C)CC3)cc2)o1` [Compound 121, 5-(4-(4-fluorophenyl)-1-isopropyl-1H-imidazol-5-yl)-N-(4-(4-methylpiperazin-1-yl)phenyl)furan-2-carboxamide], the “Human Liver Microsome (μM/min/mg)” value in data set [1] is listed as “+ (>100 μM/min/mg as +)”. The IC50 in data set [2] is under 0.1 nM; at TNIK(h), 1 to 12 nM; against MAP4K4 (h) it was 12 to 120 nM.

`O=C(Nc1ccc(N2CCNCC2)cc1)c1c[nH]c(-c2c(-c3ccc(F)cc3)ncn2CC(F)(F)F)n1` [Compound 167, 5′-(4-fluorophenyl)-N-(4-(piperazin-1-yl)phenyl)-3′-(2,2,2-trifluoroethyl)-1H,3′H-[2,4′-biimidazole]-4-carboxamide]: the “Human Liver Microsome (μM/min/mg)” value in data set [1] was “++ (10-100 μM/min/mg as ++)”. Besides, the IC50 is under 0.1 nM in data set [2], 12 to 120 nM at TNIK(h) and over 120 nM against MAP4K4 (h).

As for `CC(C)n1cnc(-c2ccc(F)cc2)c1-c1ccc(C(=O)Nc2ccc(CCO)cc2)o1` [Compound 126, 5-(4-(4-fluorophenyl)-1-isopropyl-1H-imidazol-5-yl)-N-(4-(2-hydroxyethyl)phenyl)furan-2-carboxamide], the “Human Liver Microsome (μM/min/mg)” value in data set [1] is given as “+ (>100 μM/min/mg as +)”. The IC50 in data set [2] was 0.1 to 1 nM; at TNIK(h), 12 to 120 nM; against MAP4K4 (h) it was 12 to 120 nM.

As for `CN1CCN(c2ccc(NC(=O)c3c[nH]c(-c4c(-c5ccc(F)cc5)ncn4C4CCC(O)CC4)n3)cc2)CC1` (centres unmarked) [Compound 172], the “Human Liver Microsome (μM/min/mg)” value in data set [1] is “+++ (1-10 μM/min/mg as +++)”. The compound further registered an IC50 in data set [2] of under 0.1 nM.

In the case of `CC(C)n1cnc(-c2ccc(Cl)cc2)c1-c1nc(C(=O)Nc2ccc(N3CCN(CCO)CC3)cc2)c[nH]1` [Compound 139, 5′-(4-chlorophenyl)-N-(4-(4-(2-hydroxyethyl)piperazin-1-yl)phenyl)-3′-isopropyl-1H,3′H-[2,4′-biimidazole]-4-carboxamide], the “Human Liver Microsome (μM/min/mg)” value in data set [1] is listed as “++ (10-100 μM/min/mg as ++)”. The IC50 was 0.1 to 1 nM in data set [2], 12 to 120 nM at TNIK(h) and over 120 nM on MAP4K4 (h).

As to `CN1CCN(c2ccc(NC(=O)c3c[nH]c(-c4c(-c5ccc(F)cc5)ncn4CC(F)(F)F)n3)cc2)CC1` [Compound 120, 5′-(4-fluorophenyl)-N-(4-(4-methylpiperazin-1-yl)phenyl)-3′-(2,2,2-trifluoroethyl)-1H,3′H-[2,4′-biimidazole]-4-carboxamide], the “Human Liver Microsome (μM/min/mg)” value in data set [1] is reported as “++ (10-100 μM/min/mg as ++)”. Besides, the results for the IC50 (in data set [2]; on TNIK(h); at MAP4K4 (h)) were under 0.1 nM, 12 to 120 nM and over 120 nM, respectively.

Take `CC(C)n1cnc(-c2ccc(F)cc2)c1-c1cccc(C(=O)Nc2ccc(CCC(=O)O)cc2)n1` [Compound 131]: the “Human Liver Microsome (μM/min/mg)” value in data set [1] is on record as “+++ (1-10 μM/min/mg as +++)”. In addition, the IC50 in data set [2] was 0.1 to 1 nM; on TNIK(h), 1 to 12 nM; at MAP4K4 (h), 12 to 120 nM.

For the compound `CC(C)n1cnc(-c2ccc(F)cc2)c1-c1nc(C(=O)Nc2ccc(N(CCO)CCO)cc2)c[nH]1` [Compound 116, N-(4-(bis(2-hydroxyethyl)amino)phenyl)-5′-(4-fluorophenyl)-3′-isopropyl-1H,3′H-[2,4′-biimidazole]-4-carboxamide], in data set [1], the “Human Liver Microsome (μM/min/mg)” value is on record as “+++ (1-10 μM/min/mg as +++)”. Besides, the IC50 in data set [2] is 0.1 to 1 nM; at TNIK(h) it was 12 to 120 nM; at MAP4K4 (h), 12 to 120 nM.

With `CC(C)n1cnc(-c2ccc(F)cc2)c1-c1nc(C(=O)Nc2ccc(N3CCN(CCO)CC3)cc2)c[nH]1` [Compound 117, 5′-(4-fluorophenyl)-N-(4-(4-(2-hydroxyethyl)piperazin-1-yl)phenyl)-3′-isopropyl-1H,3′H-[2,4′-biimidazole]-4-carboxamide], in data set [1], the “Human Liver Microsome (μM/min/mg)” value is “++ (10-100 μM/min/mg as ++)”. Further, the figures for the IC50 (in data set [2]; on TNIK(h); on MAP4K4 (h)) were 0.1 to 1 nM, 12 to 120 nM and 12 to 120 nM, respectively.

In the case of `CC(C)n1cnc(-c2ccc(F)cc2)c1-c1cccc(C(=O)Nc2ccc(N3CCN(C)CC3)cc2)n1` [Compound 127], in data set [1], the “Human Liver Microsome (μM/min/mg)” value is recorded as “+ (>100 μM/min/mg as +)”. The IC50 lay in the range of 0.1 to 1 nM in data set [2], 1 to 12 nM on TNIK(h) and 1 to 12 nM on MAP4K4 (h).

For the compound `CC(C)n1cnc(-c2ccc(F)cc2)c1-c1cccc(C(=O)Nc2ccc(N3CCN(CCO)CC3)cc2)n1` [Compound 128], in data set [1], the “Human Liver Microsome (μM/min/mg)” value is “+ (>100 μM/min/mg as +)”. Moreover, the IC50 in data set [2] was in the range of 0.1 to 1 nM; at TNIK(h), 1 to 12 nM; against MAP4K4 (h) it was 1 to 12 nM.

Consider `CC(C)n1cnc(-c2ccc(F)c(F)c2)c1-c1nc(C(=O)Nc2ccc(N3CCN(CCO)CC3)cc2)c[nH]1` [Compound 146, 5′-(3,4-difluorophenyl)-N-(4-(4-(2-hydroxyethyl)piperazin-1-yl)phenyl)-3′-isopropyl-1H,3′H-[2,4′-biimidazole]-4-carboxamide], for which, in data set [1], the “Human Liver Microsome (μM/min/mg)” value is reported as “++ (10-100 μM/min/mg as ++)”. Further, the results for the IC50 (in data set [2]; at TNIK(h); against MAP4K4 (h)) were 0.1 to 1 nM, 12 to 120 nM and over 120 nM, respectively.

For `CN1CCN(c2ccc(NC(=O)c3c[nH]c(-c4c(-c5ccc(F)cc5)ncn4[C@H]4CC[C@H](O)CC4)n3)cc2)CC1` [Compound 159, 5′-(4-fluorophenyl)-3′-((1r,4r)-4-hydroxycyclohexyl)-N-(4-(4-methylpiperazin-1-yl)phenyl)-1H,3′H-[2,4′-biimidazole]-4-carboxamide], the “Human Liver Microsome (μM/min/mg)” value in data set [1] is given as “++ (10-100 μM/min/mg as ++)”. In addition, the IC50 in data set [2] lay within 0.1 to 1 nM; on TNIK(h), 1 to 12 nM; on MAP4K4 (h) it was 12 to 120 nM.

On to `CC(C)n1cnc(-c2ccc(F)cc2)c1-c1nc(C(=O)Nc2ccc(N3CCN(CC(F)(F)F)CC3)cc2)c[nH]1` [Compound 189, 5′-(4-fluorophenyl)-3′-isopropyl-N-(4-(4-(2,2,2-trifluoroethyl)piperazin-1-yl)phenyl)-1H,3′H-[2,4′-biimidazole]-4-carboxamide], for which the IC50 in data set [2] lay in the range of 0.1 to 1 nM; on TNIK(h), 12 to 120 nM; at MAP4K4 (h), 12 to 120 nM.

Consider `CC1CN(c2ccc(NC(=O)c3c[nH]c(-c4c(-c5ccc(F)cc5)ncn4C(C)C)n3)cc2)CC(C)N1C` (centres unmarked) [Compound 196, 5′-(4-fluorophenyl)-3′-isopropyl-N-(4-(3,4,5-trimethylpiperazin-1-yl)phenyl)-1H,3′H-[2,4′-biimidazole]-4-carboxamide], for which the IC50 in data set [2] was under 0.1 nM; on TNIK(h) it was 12 to 120 nM; against MAP4K4 (h), 12 to 120 nM.

Turning to `CC(C)n1cnc(-c2ccc(F)cc2)c1-c1nc(C(=O)Nc2ccc(N3CCN(C)C(=O)C3)cc2)c[nH]1` [Compound 185, 5′-(4-fluorophenyl)-3′-isopropyl-N-(4-(4-methyl-3-oxopiperazin-1-yl)phenyl)-1H,3′H-[2,4′-biimidazole]-4-carboxamide], the IC50 in data set [2] lay within 0.1 to 1 nM; on TNIK(h) it was 12 to 120 nM; against MAP4K4 (h), 12 to 120 nM.

With `CC(=O)N1CCN(c2ccc(NC(=O)c3c[nH]c(-c4c(-c5ccc(F)cc5)ncn4C(C)C)n3)cc2)CC1` [Compound 188, N-(4-(4-acetylpiperazin-1-yl)phenyl)-5′-(4-fluorophenyl)-3′-isopropyl-1H,3′H-[2,4′-biimidazole]-4-carboxamide], the IC50 is 0.1 to 1 nM in data set [2], 1 to 12 nM on TNIK(h) and 12 to 120 nM at MAP4K4 (h).
